The text below walks through data of patent US20210323977A1, “PYRROLIDINYL AMIDE COMPOUNDS FOR THE TREATMENT OF AUTOIMMUNE DISEASE” (Hoffmann-La Roche Inc., priority 2018, published 2021).

The assay has as its target T1, human TLR7 (Homo sapiens, UniProt Q9NYK1).
T1 sequence (Q9NYK1 27-1049): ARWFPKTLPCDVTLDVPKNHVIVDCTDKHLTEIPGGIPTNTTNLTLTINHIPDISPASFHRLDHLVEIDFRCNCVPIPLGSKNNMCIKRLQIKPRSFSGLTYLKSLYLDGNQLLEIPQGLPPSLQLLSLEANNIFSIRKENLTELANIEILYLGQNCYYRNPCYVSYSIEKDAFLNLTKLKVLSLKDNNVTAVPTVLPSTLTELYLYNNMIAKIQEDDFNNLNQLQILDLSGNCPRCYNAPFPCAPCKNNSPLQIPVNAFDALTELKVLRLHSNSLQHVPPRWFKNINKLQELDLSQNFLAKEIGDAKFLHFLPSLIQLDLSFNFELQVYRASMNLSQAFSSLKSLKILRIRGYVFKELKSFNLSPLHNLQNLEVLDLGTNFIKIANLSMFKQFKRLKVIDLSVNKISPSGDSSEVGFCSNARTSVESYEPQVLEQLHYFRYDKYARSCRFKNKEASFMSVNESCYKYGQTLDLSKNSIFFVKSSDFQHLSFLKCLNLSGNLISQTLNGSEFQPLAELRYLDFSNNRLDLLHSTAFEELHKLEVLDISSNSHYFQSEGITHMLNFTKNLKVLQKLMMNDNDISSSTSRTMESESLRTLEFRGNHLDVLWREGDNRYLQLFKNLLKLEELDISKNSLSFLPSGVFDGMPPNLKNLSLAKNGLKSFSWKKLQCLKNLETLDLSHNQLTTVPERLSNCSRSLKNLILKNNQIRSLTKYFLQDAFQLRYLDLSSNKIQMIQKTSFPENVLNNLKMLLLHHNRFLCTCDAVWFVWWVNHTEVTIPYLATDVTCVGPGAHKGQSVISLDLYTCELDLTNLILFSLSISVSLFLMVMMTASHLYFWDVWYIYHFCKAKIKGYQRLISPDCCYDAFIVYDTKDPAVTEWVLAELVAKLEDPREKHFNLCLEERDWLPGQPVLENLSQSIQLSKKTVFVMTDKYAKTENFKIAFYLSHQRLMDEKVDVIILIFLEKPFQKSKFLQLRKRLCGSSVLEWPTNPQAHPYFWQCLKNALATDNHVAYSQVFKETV
Briefly: HEK293-Blue-hTLR-7 cells assay. The assay is classed as cell-based. The conditions noted are these: HEK293-Blue-hTLR7 cells, SEAP reporter, R848 stimulation, 20 hrs. The text has this: HEK293-Blue-hTLR-7 Cells Assay:
A stable HEK293-Blue-hTLR-7 cell line was purchased from InvivoGen (Cat. #: hkb-htlr7, San Diego, Calif., USA). These cells were originally designed for studying the stimulation of human TLR7 by monitoring the activation of NF-κB. A SEAP (secreted embryonic alkaline phosphatase) reporter gene was placed under the control of the IFN-β minimal promoter fused to five NF-κB and AP-1-binding sites. The SEAP was induced by activating NF-κB and AP-1 via stimulating HEK-Blue hTLR7 cells with TLR7 ligands. Therefore the reporter expression was declined by TLR7 antagonist under the stimulation of a ligand, such as R848 (Resiquimod), for incubation of 20 hrs. The cell culture supernatant SEAP reporter activity was determined using QUANTI-Blue™ kit (Cat. #: rep-qb1, Invivogen, San Diego, Ca, USA) at a wavelength of 640 nm, a detection medium that turns purple or blue in the presence of alkaline phosphatase.
HEK293-Blue-hTLR7 cells were incubated at a density of 250,000˜450,000 cells/mL in a volume of 170 μL in a 96-well plate in Dulbecco's Modified Eagle's medium (DMEM) containing 4.5 g/L glucose, 50 U/mL penicillin, […], […], 2 mM L-glutamine, 10% (v/v) heat-inactivated fetal bovine serum with addition of 20 sL test compound in a serial dilution in the presence of final DMSO at 1% and 10 μL of 20 uM R848 in above DMEM, perform incubation under 37° C. in a CO2 incubator for 20 hrs. Then 20 μL of the supernatant from each well was incubated with 180 sL Quanti-blue substrate solution at 37° C. for 2 hrs and the absorbance was read at 620-655 nm using a spectrophotometer. The signalling pathway that TLR7 activation leads to downstream NF-κB activation has been widely accepted, and therefore similar reporter assay was modified for evaluating TLR7 antagonist.
A word on the IC50: it is the concentration needed to halve the response being measured. The low end stands for inhibition by little substance, the high end for a need for much substance. In turn, `N#Cc1ccc(N2CC(C(=O)NC[C@H]3CNCCO3)C3(CC3)C2)c2nccnc12` (single isomer, unassigned) [Example 70A] returned an IC50 of 0.019 µM.

With `C[C@@H]1CN(c2ccc(C#N)c3ncccc23)C[C@H]1C(=O)NC1CCCNCC1` (single isomer, unassigned) [Example 52B, Trans-N-(azepan-4-yl)-1-(8-cyano-5-quinolyl)-4-methyl-pyrrolidine-3-carboxamide], inhibition was half-maximal at 0.219 µM (IC50).

For the molecule `C[C@@H]1CN(c2ccc(C(F)(F)F)c3nccnc23)C[C@H]1C(=O)NC1CCN(C)CC1` [Example 25, (3S,4S)-4-Methyl-N-(1-methyl-4-piperidyl)-1-[8-(trifluoromethyl)quinoxalin-5-yl]pyrrolidine-3-carboxamide], the IC50 is 0.033 µM.

Regarding `O=C(NC1CC2CNCC2C1)C1CN(c2ccc(C(F)(F)F)c3nccnc23)CC12CC2` (stereo not shown) [Example 21, N-(1,2,3,3a,4,5,6,6a-octahydrocyclopenta[c]pyrrol-5-yl)-5-[8-(trifluoromethyl)quinoxalin-5-yl]-5-azaspiro[2.4]heptane-7-carboxamide], the half-inhibitory concentration (IC50) was 0.028 µM.

As for `O=C(NC1CC2CNCC(C2)C1)C1CN(c2ccc(C(F)(F)F)c3nccnc23)CC12CC2` (stereo not shown) [Example 15, N-(3-azabicyclo[3.3.1]nonan-7-yl)-5-[8-(trifluoromethyl)quinoxalin-5-yl]-5-azaspiro[2.4]heptane-7-carboxamide], the half-maximal inhibitory concentration (IC50) stood at 0.021 µM.

`N#Cc1ccc(N2CC(C(=O)NC[C@H]3CNCCO3)C3(CC3)C2)c2nccnc12` (single isomer, unassigned) [Example 70B] returned an IC50 of 0.233 µM.

With `C[C@@H]1CN(c2ccc(C#N)c3ncccc23)C[C@H]1C(=O)NC1CCN(C)CC1` (relative stereo) [Example 28], the IC50 stood at 0.039 µM.

The molecule `C[C@@H]1CN(c2ccc(C#N)c3ncccc23)C[C@H]1C(=O)N[C@H]1CNC[C@H]1F` [Example 56, Trans-1-(8-cyano-5-quinolyl)-N-[(3S,4R)-4-fluoropyrrolidin-3-yl]-4-methyl-pyrrolidine-3-carboxamide] came in with an IC50 of 0.282 µM.

The molecule `N#Cc1ccc(N2CC(C(=O)NC[C@@H]3CNCCO3)C3(CC3)C2)c2nccnc12` (single isomer, unassigned) [Example 71A] had a 50% inhibitory concentration (IC50) of 0.021 µM.

In turn, `Cc1ccc(N2C[C@H](C(=O)NC3CCN(C)CC3)[C@@H](C)C2)c2nccnc12` [Example 33, (3R,4R)-4-Methyl-N-(1-methyl-4-piperidyl)-1-(8-methylquinoxalin-5-yl)pyrrolidine-3-carboxamide] yielded a half-maximal inhibitory concentration (IC50) of 0.045 µM.

For the molecule `O=C(NC1CC2CCC(C1)N2)C1CN(c2ccc(C(F)(F)F)c3nccnc23)CC12CC2` (stereo not shown) [Example 23, N-(8-azabicyclo[3.2.1]octan-3-yl)-5-[8-(trifluoromethyl)quinoxalin-5-yl]-5-azaspiro[2.4]heptane-7-carboxamide], half-maximal inhibition (IC50) was put at 0.028 µM.

`NC1CC(CNC(=O)C2CN(c3ccc(C(F)(F)F)c4nccnc34)CC23CC3)C1` (stereo not shown) [Example 31, N-[(3-aminocyclobutyl)methyl]-5-[8-(trifluoromethyl)quinoxalin-5-yl]-5-azaspiro[2.4]heptane-7-carboxamide] gave an IC50 of 0.041 µM.

In turn, `CN1CCC(NC(=O)C2CN(c3ccc(C#N)c4nccnc34)CC23CC3)CC1` (single isomer, unassigned) [Example 7B, 5-(8-Cyanoquinoxalin-5-yl)-N-(1-methyl-4-piperidyl)-5-azaspiro[2.4]heptane-7-carboxamide] gave a 50% inhibitory concentration (IC50) of 0.006 µM.

Turning to `N#Cc1ccc(N2CC(C(=O)NC3CCCNCC3)C(C(F)(F)F)C2)c2cccnc12` (single isomer, unassigned) [Example 30B, N-(azepan-4-yl)-1-(8-cyano-5-quinolyl)-4-(trifluoromethyl)pyrrolidine-3-carboxamide], the half-maximal inhibitory concentration (IC50) was 0.05 µM.

On to `CN1CCC(NC(=O)C2CN(c3ccc(C#N)c4nccnc34)CC23CC3)CC1` (single isomer, unassigned) [Example 7A, 5-(8-Cyanoquinoxalin-5-yl)-N-(1-methyl-4-piperidyl)-5-azaspiro[2.4]heptane-7-carboxamide], for which the IC50 was determined as 0.004 µM.

On to `CN1CCC(NC(=O)[C@@H]2CN(c3ccc(C#N)c4ncccc34)C[C@H]2C(F)F)CC1` (relative stereo) [Example 40, Trans-1-(8-cyano-5-quinolyl)-4-(difluoromethyl)-N-(1-methyl-4-piperidyl)pyrrolidine-3-carboxamide], for which the IC50 stood at 0.079 µM.

For the molecule `CN1CCC(NC(=O)[C@H]2CN(c3ccc(C#N)c4nccnc34)C[C@@H]2C(F)(F)F)CC1` [Example 1, (3R,4R)-1-(8-cyanoquinoxalin-5-yl)-N-(1-methyl-4-piperidyl)-4-(trifluoromethyl) pyrrolidine-3-carboxamide], half-maximal inhibition (IC50) was put at 0.003 µM.

As for `O=C(NC1C2CCC1CNC2)C1CN(c2ccc(C(F)(F)F)c3nccnc23)CC12CC2` (stereo not shown) [Example 12, N-(3-azabicyclo[3.2.1]octan-8-yl)-5-[8-(trifluoromethyl)quinoxalin-5-yl]-5-azaspiro[2.4]heptane-7-carboxamide], the 50% inhibitory concentration (IC50) is 0.018 µM.

Consider `CN1CCC(NC(=O)[C@H]2CN(c3ccc(C(F)(F)F)c4nccnc34)C[C@@H]2C(F)(F)F)CC1` [Example 2, (3R,4R)—N-(1-methyl-4-piperidyl)-4-(trifluoromethyl)-1-[8-(trifluoromethyl)quinoxalin-5-yl]pyrrolidine-3-carboxamide], for which the IC50 amounted to 0.004 µM.

On to `O=C(NC1CC2CCCC(C1)N2)C1CN(c2ccc(C(F)(F)F)c3nccnc23)CC12CC2` (stereo not shown) [Example 10, N-(9-azabicyclo[3.3.1]nonan-3-yl)-5-[8-(trifluoromethyl)quinoxalin-5-yl]-5-azaspiro[2.4]heptane-7-carboxamide], for which half-maximal inhibition (IC50) was put at 0.012 µM.

In turn, `N[C@H]1CC[C@@H](NC(=O)C2CN(c3ccc(C(F)(F)F)c4nccnc34)CC23CC3)CC1` (stereo partly shown) [Example 39, N-(4-Aminocyclohexyl)-5-[8-(trifluoromethyl)quinoxalin-5-yl]-5-azaspiro[2.4]heptane-7-carboxamide] showed an IC50 of 0.074 µM.

In turn, `N#Cc1ccc(N2CC(C(=O)NCC3CNCCO3)C3(CC3)C2)c2nccnc12` (stereo not shown) [Example 13, 5-(8-Cyanoquinoxalin-5-yl)-N-(morpholin-2-ylmethyl)-5-azaspiro[2.4]heptane-7-carboxamide] yielded a 50% inhibitory concentration (IC50) of 0.018 µM.

The molecule `N[C@H]1CC[C@H](NC(=O)C2CN(c3ccc(C(F)(F)F)c4nccnc34)CC23CC3)CC1` (stereo partly shown) [Example 24, N-(4-aminocyclohexyl)-5-[8-(trifluoromethyl)quinoxalin-5-yl]-5-azaspiro[2.4]heptane-7-carboxamide] yielded an IC50 of 0.029 µM.

For the molecule `CN1CCC(NC(=O)C2CN(c3ccc(C#N)c4ncccc34)CC23CC3)CC1` (single isomer, unassigned) [Example 41A, 5-(8-Cyano-5-quinolyl)-N-(1-methyl-4-piperidyl)-5-azaspiro[2.4]heptane-7-carboxamide], the 50% inhibitory concentration (IC50) worked out at 0.079 µM.

`CN1CCC(NC(=O)C2CN(c3ccc(C(F)(F)F)c4nccnc34)CC23CC3)CC1` (stereo not shown) [Example 11, N-(1-methyl-4-piperidyl)-5-[8-(trifluoromethyl)quinoxalin-5-yl]-5-azaspiro[2.4]heptane-7-carboxamide] yielded a 50% inhibitory concentration (IC50) of 0.013 µM.
